Results taken from ChEMBL document CHEMBL3865823, “Ameliorative effects of amide derivatives of 1,3,4-thiadiazoles on scopolamine induced cognitive dysfunction” (Eur J Med Chem, 2016).

Assays:
Mus musculus [1] = assay: Antiamnesic activity against scopolamine-induced memory loss in albino mouse assessed as latency to reach shock free zone at 0.5 mg/kg, ip administered 5 mins post scopolamine-challenge and 35 mins prior to training by passive avoidance test (reference value: 53.25 +/- 1.37 sec); assay type: functional
Mus musculus [2] = assay: Neuroprotective activity against scopolamine-induced oxidative damage in albino mouse assessed as lipid peroxidation in brain by measuring MDA level per mg protein at 0.5 mg/kg, ip administered 5 mins post scopolamine-challenge by TBARS assay (reference value: 2.73 +/- 0.36 mol); assay type: functional
Mus musculus [3] = assay: Antiamnesic activity against scopolamine-induced memory loss in albino mouse assessed as escape latency time at 0.5 mg/kg, ip administered 5 mins post scopolamine-challenge and 35 mins prior to training measured on day 3 by Morris water maze test (reference value: 88.33 +/- 0.95 sec); assay type: functional
Mus musculus [4] = assay: Neuroprotective activity against scopolamine-induced oxidative damage in albino mouse assessed as catalase activity by measuring H2O2 decomposition per mg of protein at 0.5 mg/kg, ip administered 5 mins post scopolamine-challenge (reference value: 1.37 +/- 0.25 micromol/min); assay type: functional
Mus musculus [5] = assay: Neuroprotective activity against scopolamine-induced oxidative damage in albino mouse assessed as superoxide dismutase level in brain at 0.5 mg/kg, ip administered 5 mins post scopolamine-challenge measured at every 30 to 60 secs interval for 2 mins by NBT reduction assay (reference value: 0.17 +/- 0.03 U/mg); assay type: functional
Acetylcholinesterase [6] = molecular target: T1, Acetylcholinesterase (Mus musculus, UniProt P21836); assay: Competitive inhibition of albino mouse brain AChE using acetylthiocholine iodide as substrate measured up to 2 mins by Ellmans method
T1 sequence (P21836 whole entry): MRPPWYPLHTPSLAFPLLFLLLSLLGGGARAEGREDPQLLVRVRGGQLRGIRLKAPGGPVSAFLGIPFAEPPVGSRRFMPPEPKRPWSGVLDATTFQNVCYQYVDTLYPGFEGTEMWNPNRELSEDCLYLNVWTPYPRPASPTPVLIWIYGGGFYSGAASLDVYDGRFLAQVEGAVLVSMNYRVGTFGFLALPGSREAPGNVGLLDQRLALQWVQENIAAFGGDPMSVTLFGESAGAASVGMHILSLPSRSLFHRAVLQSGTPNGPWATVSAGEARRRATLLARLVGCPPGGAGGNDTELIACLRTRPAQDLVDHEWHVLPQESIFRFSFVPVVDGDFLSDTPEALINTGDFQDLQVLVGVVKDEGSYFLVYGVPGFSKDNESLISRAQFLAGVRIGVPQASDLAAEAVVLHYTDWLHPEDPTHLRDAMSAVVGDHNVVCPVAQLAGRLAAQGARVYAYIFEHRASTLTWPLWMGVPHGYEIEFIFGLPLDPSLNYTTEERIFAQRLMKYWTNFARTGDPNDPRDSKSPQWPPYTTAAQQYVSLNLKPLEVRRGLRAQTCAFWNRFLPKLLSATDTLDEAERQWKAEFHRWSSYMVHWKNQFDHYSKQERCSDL

Acetylcholinesterase [7] = molecular target: T1, Acetylcholinesterase; assay: Inhibition of albino mouse brain AChE using acetylthiocholine iodide as substrate measured for 2 mins by Ellmans method; assay type: tissue-based
Mus musculus [8] = assay: Antiamnesic activity against scopolamine-induced memory loss in albino mouse assessed as escape latency time at 0.5 mg/kg, ip administered 5 mins post scopolamine-challenge and 35 mins prior to training measured on day 4 by Morris water maze test (reference value: 87.17 +/- 1.03 sec); assay type: functional
Mus musculus [9] = assay: Antiamnesic activity against scopolamine-induced memory loss in albino mouse assessed as escape latency time at 0.5 mg/kg, ip administered 5 mins post scopolamine-challenge and 35 mins prior to training measured on day 1 by Morris water maze test (reference value: 89.67 +/- 0.23 sec); assay type: functional
Mus musculus [10] = assay: Neuroprotective activity against scopolamine-induced oxidative damage in albino mouse assessed as glutathione reductase level in brain measured per mg of protein at 0.5 mg/kg, ip administered 5 mins post scopolamine-challenge by Ellamns assay (reference value: 0.008 +/- 0.001 umol); assay type: functional
Mus musculus [11] = assay: Neuroprotective activity against scopolamine-induced oxidative damage in albino mouse assessed as nitrite level in plasma at 0.5 mg/kg, ip administered 5 mins post scopolamine-challenge by Greiss assay (reference value: 483.5 +/- 27.1 ug/ml); assay type: functional
Mus musculus [12] = assay: Antiamnesic activity against scopolamine-induced memory loss in albino mouse assessed as escape latency time at 0.5 mg/kg, ip administered 5 mins post scopolamine-challenge and 35 mins prior to training measured on day 5 by Morris water maze test (reference value: 84.92 +/- 1.64 sec); assay type: functional
Mus musculus [13] = assay: Antiamnesic activity against scopolamine-induced memory loss in albino mouse assessed as escape latency time at 0.5 mg/kg, ip administered 5 mins post scopolamine-challenge and 35 mins prior to training measured on day 2 by Morris water maze test (reference value: 89.41 +/- 0.39 sec); assay type: functional
Mus musculus [14] = assay: Antiamnesic activity against scopolamine-induced memory loss in albino mouse assessed as basal latency to reach shock free zone at 0.5 mg/kg, ip administered 5 mins post scopolamine-challengen and 35 mins prior to training by passive avoidance test (reference value: 40.25 +/- 2.84 sec); assay type: functional
Mus musculus [15] = assay: Inhibition of scopolamine-induced increase in AchE level in albino mouse assessed as AChE level in brain at 0.5 mg/kg, ip administered 5 mins post scopolamine-challenge using acetlythiocholine iodidie as substrate by Ellman's method (reference value: 0.011 +/- 0.0022 umol/min/mg); assay type: functional
Mus musculus [16] = assay: Antiamnesic activity against scopolamine-induced memory loss in albino mouse assessed as number of mistakes at 0.5 mg/kg, ip administered 5 mins post scopolamine-challenge and 35 mins prior to training by passive avoidance test (reference value: 12.25 +/- 0.47); assay type: functional
Mus musculus [17] = assay: Antiamnesic activity against scopolamine-induced memory loss in albino mouse assessed as time spent in target quadrant at 0.5 mg/kg, ip administered 5 mins post scopolamine-challenge and 35 mins prior to training measured on day 5 by Morris water maze test (reference value: 4 +/- 1.15 sec); assay type: functional
Acetylcholinesterase [18] = molecular target: T1, Acetylcholinesterase; assay: Uncompetitive inhibition of albino mouse brain AChE using acetylthiocholine iodide as substrate measured up to 2 mins by Ellmans method

Row | Compound | Time (Mus musculus [1]) [s] | Activity (Mus musculus [2]) [nmol] | Time (Mus musculus [3]) [s] | Activity (Mus musculus [4]) [µmol/min] | Activity (Mus musculus [5]) [U/mg] | Ki (Acetylcholinesterase [6]) [µM] | IC50 (Acetylcholinesterase [7]) [µM] | Time (Mus musculus [8]) [s] | Time (Mus musculus [9]) [s] | Activity (Mus musculus [10]) [µmol] | Activity (Mus musculus [11]) [µg/mL] | Time (Mus musculus [12]) [s] | Time (Mus musculus [13]) [s] | Time (Mus musculus [14]) [s] | Activity (Mus musculus [15]) [µmol/min/mg] | Activity (Mus musculus [16]) | Time (Mus musculus [17]) [s] | Ki (Acetylcholinesterase [18]) [µM]
1 | O=C(Nc1nnc(-c2ccccc2Cl)s1)c1cc(C(F)(F)F)cc(C(F)(F)F)c1 | 4.5 | 0.73 | 73.75 | 2.79 | 5.87 | 0.97 | 2.74 | 52.92 | 89.75 | 0.016 | 291.8 | 21.67 | 84.25 | 30.75 | 0.002 | 3 | 25.33 | –
2 | O=C(Nc1nnc(-c2ccccc2)s1)c1cccc(CCl)c1 | – | 0.67 | – | 2.67 | 5.95 | – | 4.09 | – | – | 0.012 | 268.5 | – | – | – | 0.004 | – | – | 0.85
3 | Cc1ccc(-c2nnc(NC(=O)c3cc(C(F)(F)F)cc(C(F)(F)F)c3)s2)cc1 | – | 1.09 | – | 2.69 | 5.23 | – | 7.09 | – | – | 0.012 | 306.5 | – | – | – | 0.003 | – | – | 3.77
4 | CC(=O)Oc1cccc(C(=O)Nc2nnc(-c3ccccc3Cl)s2)c1 | 4.5 | 0.76 | 62.33 | 2.66 | 5.29 | – | 3.03 | 46.83 | 88.42 | 0.013 | 265.5 | 23.92 | 77.83 | 36.33 | 0.004 | 4.25 | 23.33 | 0.64
5 | O=C(Nc1nnc(-c2ccccc2Cl)s1)c1cccc(CCl)c1 | 5.25 | 0.76 | 62.92 | 1.9 | 5.95 | – | 3 | 44.75 | 85.92 | 0.01 | 308.8 | 22.5 | 76.08 | 34.58 | 0.003 | 4.5 | 24.33 | 0.66
6 | CC(CC(=O)Nc1nnc(Cc2ccccc2)s1)CC(C)(C)C (stereo unspecified) | – | – | – | – | – | – | 27.1 | – | – | – | – | – | – | – | – | – | – | 3.99
7 | Cc1ccc(-c2nnc(NC(=O)c3cccc(CCl)c3)s2)cc1 | – | – | – | – | – | 3.84 | 12.6 | – | – | – | – | – | – | – | – | – | – | –
8 | O=C(Nc1nnc(Cc2ccccc2)s1)c1cccc(CCl)c1 | – | 0.98 | – | 1.74 | 5.26 | – | 20.3 | – | – | 0.01 | 324.8 | – | – | – | 0.003 | – | – | 5.06
9 | CC(CC(=O)Nc1nnc(-c2cccc(Cl)c2)s1)CC(C)(C)C (stereo unspecified) | – | – | – | – | – | – | 13.7 | – | – | – | – | – | – | – | – | – | – | 2.67
10 | CC(=O)Oc1cccc(C(=O)Nc2nnc(-c3ccccc3)s2)c1 | – | – | – | – | – | 0.91 | 3.78 | – | – | – | – | – | – | – | – | – | – | –
11 | CC(=O)Oc1cccc(C(=O)Nc2nnc(Cc3ccccc3)s2)c1 | – | – | – | – | – | – | 11.6 | – | – | – | – | – | – | – | – | – | – | 5.67
12 | Cc1ccc(-c2nnc(NC(=O)CC(C)CC(C)(C)C)s2)cc1 (stereo unspecified) | – | – | – | – | – | – | 23.7 | – | – | – | – | – | – | – | – | – | – | 8.36
13 | CC(=O)Oc1cccc(C(=O)Nc2nnc(-c3ccc(C)cc3)s2)c1 | – | – | – | – | – | – | 10.8 | – | – | – | – | – | – | – | – | – | – | 3.77
14 | CC(CC(=O)Nc1nnc(-c2ccccc2)s1)CC(C)(C)C (stereo unspecified) | – | – | – | – | – | – | 23.7 | – | – | – | – | – | – | – | – | – | – | 7.6
15 | CCN(C)C(=O)Oc1cccc([C@H](C)N(C)C)c1 [RIVASTIGMINE] | 12.25 | 2.34 | 72.92 | 1.88 | 4.24 | – | – | 54.58 | 89.75 | 0.014 | 418.2 | 34.08 | 83.83 | 37.08 | 0.005 | 8.75 | 15 | –
